In BindingDB's records for doi:10.1016/0006-2952(86)90769-0 (Wyeth Laboratories, 1986):

What was measured:
[1] = biological target: T1, Alpha-2C adrenergic receptor (Rattus norvegicus, UniProt P22086)
T1 sequence (P22086 whole entry): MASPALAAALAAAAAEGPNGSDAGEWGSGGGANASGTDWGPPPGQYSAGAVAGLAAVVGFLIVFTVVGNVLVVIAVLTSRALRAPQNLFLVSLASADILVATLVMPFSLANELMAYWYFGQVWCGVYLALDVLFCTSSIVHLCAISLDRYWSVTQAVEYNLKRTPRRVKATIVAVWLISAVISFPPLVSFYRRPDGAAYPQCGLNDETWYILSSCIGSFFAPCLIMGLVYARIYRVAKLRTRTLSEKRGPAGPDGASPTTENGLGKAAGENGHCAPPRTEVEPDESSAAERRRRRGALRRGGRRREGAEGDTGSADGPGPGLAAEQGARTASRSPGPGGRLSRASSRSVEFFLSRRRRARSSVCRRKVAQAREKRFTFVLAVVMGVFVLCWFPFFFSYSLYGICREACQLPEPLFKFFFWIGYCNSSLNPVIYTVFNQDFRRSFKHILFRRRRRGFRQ

[2] = biological target: T2, Muscarinic acetylcholine receptor M2 (Rattus norvegicus, UniProt P10980)
T2 sequence (P10980 whole entry): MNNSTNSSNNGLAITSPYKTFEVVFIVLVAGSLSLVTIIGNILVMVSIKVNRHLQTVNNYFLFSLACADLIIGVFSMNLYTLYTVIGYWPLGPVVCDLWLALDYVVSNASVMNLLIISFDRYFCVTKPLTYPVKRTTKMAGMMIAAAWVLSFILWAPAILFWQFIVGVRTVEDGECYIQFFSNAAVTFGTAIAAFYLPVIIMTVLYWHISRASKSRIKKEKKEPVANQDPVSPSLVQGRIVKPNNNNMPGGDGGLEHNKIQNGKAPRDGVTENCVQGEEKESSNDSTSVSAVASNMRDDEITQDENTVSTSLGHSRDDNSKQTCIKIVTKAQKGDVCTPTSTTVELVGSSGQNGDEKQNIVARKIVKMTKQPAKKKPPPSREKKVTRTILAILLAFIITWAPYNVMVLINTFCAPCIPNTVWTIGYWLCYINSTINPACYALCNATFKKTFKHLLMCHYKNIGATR

Histamine H1 receptor = Histamine H1 receptor (Rattus norvegicus, UniProt P31390)
Chain of Histamine H1 receptor (P31390 whole entry): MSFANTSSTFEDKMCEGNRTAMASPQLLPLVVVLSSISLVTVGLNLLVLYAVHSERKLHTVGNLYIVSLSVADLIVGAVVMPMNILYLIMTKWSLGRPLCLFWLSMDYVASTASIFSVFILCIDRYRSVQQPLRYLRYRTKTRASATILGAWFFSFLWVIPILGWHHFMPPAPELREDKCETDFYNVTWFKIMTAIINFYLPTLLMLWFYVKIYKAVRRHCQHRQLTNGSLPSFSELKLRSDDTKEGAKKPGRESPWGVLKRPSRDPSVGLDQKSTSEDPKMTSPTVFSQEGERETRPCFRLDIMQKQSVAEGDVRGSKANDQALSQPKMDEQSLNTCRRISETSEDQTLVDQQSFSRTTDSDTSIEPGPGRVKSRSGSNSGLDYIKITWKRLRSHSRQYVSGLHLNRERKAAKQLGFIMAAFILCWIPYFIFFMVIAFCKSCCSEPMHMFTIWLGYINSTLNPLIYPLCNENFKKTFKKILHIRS

Compound	Ki [1]	Ki [2]	Ki (Histamine H1 receptor)
CNCCCN1c2ccccc2CCc2ccccc21 [Desmethylimipramine]	> 10 µM	0.05 µM	
COc1ccc(C(CN(C)C)C2(O)CCCCC2)cc1 (stereo not given) [NSC_62923]	> 10 µM	> 10 µM	> 10 µM
